According to ChEMBL document CHEMBL4627354, “Antifungal polyketide derivatives from the endophytic fungus Aplosporella javeedii” (Bioorg Med Chem, 2020):
≈ marks a conversion by molar mass, not a printed value. Calls of active or inactive are those of the source. The rule behind the calls is not given here.

Experiments:
Staphylococcus aureus [1] = assay: Antibacterial activity against Staphylococcus aureus ATCC 29213 by CLSI broth microdilution method; assay type: functional
Staphylococcus aureus [2] = assay: Antibacterial activity against methicillin-resistant and […] Staphylococcus aureus ATCC 700699 by CLSI broth microdilution method; assay type: functional; settings: Mu50 ATCC 700699
Bacillus subtilis = assay: Antibacterial activity against Bacillus subtilis ATCC 169 by CLSI broth microdilution method; assay type: functional
Candida albicans [3] = assay: Antifungal activity against hyphae form of Candida albicans ATCC 24433 assessed as diameter of zone inhibition at 1 mM incubated for overnight by disc diffusion method; assay type: functional; settings: read-out: DIZ
Saccharomyces cerevisiae [4] = assay: Antifungal activity against Saccharomyces cerevisiae assessed as diameter of zone inhibition incubated for overnight by disc diffusion method; assay type: functional
Candida albicans [5] = assay: Antifungal activity against hyphae form of Candida albicans ATCC 24433 assessed inhibition of visible microbe growth incubated for overnight by CLSI microbroth dilution method; assay type: functional
THP-1 = assay: Cytotoxicity against human THP1 cells assessed as reduction in cell viability up to 100 uM measured after 48 hrs by resazurin based fluorescence assay; settings: thp-1, 48 h
[6] = Cytotoxicity against human CLS54 cells assessed as reduction in cell viability up to 100 uM measured after 48 hrs by resazurin based fluorescence assay
Huh-7 = assay: Cytotoxicity against human HuH7 cells assessed as reduction in cell viability up to 100 uM measured after 48 hrs by resazurin based fluorescence assay; settings: huh-7, 48 h
Candida albicans [7] = assay: Fungicidal activity against hyphae form of Candida albicans ATCC 24433 assessed as log reduction in bacterial viability at 400 uM measured after 6 hrs by time kill assay; assay type: functional
[8] = test system: Mycobacterium tuberculosis; assay: Antibacterial activity against Mycobacterium tuberculosis H37Rv by CLSI broth microdilution method; assay type: functional, organism-based
Enterococcus faecalis [9] = assay: Antibacterial activity against Enterococcus faecalis ATCC 29212 by CLSI broth microdilution method; assay type: functional, organism-based
Enterococcus faecalis [10] = assay: Antibacterial activity against Enterococcus faecalis ATCC 51299 by CLSI broth microdilution method; assay type: functional, organism-based
Enterococcus faecium [11] = assay: Antibacterial activity against Enterococcus faecium ATCC 35667 by CLSI broth microdilution method; assay type: functional, organism-based
Enterococcus faecium [12] = assay: Antibacterial activity against Enterococcus faecium ATCC 700221 by CLSI broth microdilution method; assay type: functional, organism-based
Escherichia coli = assay: Antibacterial activity against Escherichia coli ATCC 25922 by CLSI broth microdilution method; assay type: functional, organism-based
Saccharomyces cerevisiae [13] = assay: Antifungal activity against Saccharomyces cerevisiae incubated for overnight by disc diffusion method; assay type: functional, organism-based
Candida albicans [14] = assay: Antifungal activity against hyphae form of Candida albicans ATCC 24433 incubated for overnight by disc diffusion method; assay type: functional, organism-based
Candida albicans [15] = assay: Fungicidal activity against hyphae form of Candida albicans ATCC 24433 assessed as reduction in bacterial viability at 474 uM measured after 6 hrs by time kill assay; assay type: functional, organism-based

Row | SMILES | MIC (Staphylococcus aureus [1]) [µM] | MIC (Staphylococcus aureus [2]) [µM] | Activity [8] | Activity (Enterococcus faecalis [9]) | Activity (Enterococcus faecalis [10]) | Activity (Enterococcus faecium [11]) | Activity (Enterococcus faecium [12]) | Activity (Escherichia coli) | Activity (Staphylococcus aureus [1]) | Activity (Staphylococcus aureus [2]) | Activity (Bacillus subtilis) | Activity (Saccharomyces cerevisiae [13]) | Activity (Candida albicans [14]) | other results
1 | CCCCCc1cc(O)c(C=O)c(O)c1C | 50 (≈ 11.1 µg/mL) | 50 (≈ 11.1 µg/mL) | inactive | inactive | inactive | inactive | inactive | inactive | – | – | – | – | – | MIC (Bacillus subtilis): 25 µM (≈ 5.56 µg/mL); zone of inhibition at 1000 µM (Candida albicans [3]): 8 mm; diameter of the inhibition zone (DIZ) (Saccharomyces cerevisiae [4]): 18 mm; MIC (Candida albicans [5]): 100 µM (≈ 22.2 µg/mL); Activity (THP-1): Non-Toxic; Activity [6]: Non-Toxic; Activity (Huh-7): Non-Toxic; log(activity) (Candida albicans [7]): 3.5
2 | Cc1c(CCCCCO)cc(O)c(C=O)c1O | – | – | inactive | inactive | inactive | inactive | inactive | inactive | inactive | inactive | inactive | inactive | inactive | –
3 | CN[C@H]1C[C@@H](N)[C@H](O)[C@@H](O[C@@H]2O[C@H](CO)[C@H](O)[C@@H]3O[C@@]4(O[C@H]23)O[C@H]([C@H](N)CO)[C@H](O)[C@H](O)[C@H]4O)[C@@H]1O | – | – | – | – | – | – | – | – | – | – | – | – | – | Activity (Candida albicans [15]): Active
4 | Cc1c(CCC(=O)O)cc(O)c(C=O)c1O | 25 (≈ 5.61 µg/mL) | 50 (≈ 11.2 µg/mL) | inactive | inactive | inactive | inactive | inactive | inactive | – | – | inactive | inactive | inactive | –
5 | Cc1c(CCCCC(=O)O)cc(O)c(C=O)c1O | – | – | inactive | inactive | inactive | inactive | inactive | inactive | inactive | inactive | inactive | inactive | inactive | –
6 | Cc1c(CCCC(O)CO)cc(O)c(C=O)c1O (stereo unspecified) | – | – | inactive | inactive | inactive | inactive | inactive | inactive | inactive | inactive | inactive | inactive | inactive | –
